Test results reported in patent US10028966B2 (Avalyn Pharma Inc., priority 2014, dated 2018).
Read-outs that look alike come from different tables or passages of the source. Marks after values point to notes of the source that are not given here.

Tests used:
[1] = molecular target: T1, CYP2C9 (Homo sapiens, UniProt P11712); settings: hepatic microsomes; cited from earlier work
T1 construct: In vitro metabolism studies with hepatic microsomes; from tissue; host or cells: hepatic microsomes

[2] = test system: LPS-induced pulmonary inflammasome model; assay: LPS-induced pulmonary inflammasome model (BAL cell counts, BAL IL-1β); type: in vivo, Sprague Dawley rats; settings: for BAL IL-1β, average / BAL cells (%), EO (eosinophil), average / BAL cells (%), LM (lymphocytes), average / BAL cells (%), NP (neutrophils), average / BAL number cells, EO (eosinophil), average / BAL number cells, LM (lymphocytes), average / BAL number cells, NP (neutrophils), average: 24 hours, n = 4; for LPS-induced IL-1β (%): relative to LPS + IT saline = 100
Description: To compare the efficacy of intratracheal, direct-lung aerosol administration and oral gavage, the LPS-induced pulmonary inflammasome model was performed. Briefly, Sprague Dawley rats (200-250 grams) were administered a single dose of LPS by the intratracheal route (IT) using a intubation aerosol delivery device. All IT doses were delivered just above the first pulmonary bifurcation. Sham animals were treated with saline. […] Lungs were lavaged and collected bronchial lavage fluid (BAL) was assessed for total cell count, neutrophils, macrophage, eosinophils and lymphocytes. BAL was also assessed for IL-1b.

[3] = Pharmacokinetics and lung-tissue distribution after oral gavage or intratracheal aerosol; type: in vivo, Sprague-Dawley rats; settings: for half-life: po, 70 mg/kg
Description: Solutions were vortexed until all crystals dissolved. […] Plasma samples were taken at pre-dose, 0.08, 0.16, 0.25, 0.5, 0.75, 1.0, 1.5, 2, 4, and 6 hours post dosing. For lung tissue samples, eight additional rats were also dosed 70 mg/kg by the oral route. Lungs were taken at pre-dose 0.08, 0.5, 2, and 4 hours post dosing. Materials were extracted and pirfenidone quantitated as μg/mL plasma and μg/gram lung tissue. […]

[4] = test system: bleomycin model of pulmonary fibrosis; assay: Bleomycin model of pulmonary fibrosis (hydroxyproline, fibrosis score); type: in vivo, Wistar rats; settings: for Right lung Average Hydroxyproline: days 7-28; for Average Fibrosis Score, difference from bleomycin control / Right lung Average Hydroxyproline, difference from bleomycin control: sham-subtracted
Description: To compare anti-fibrotic efficacy between extended-duration intratracheal, direct-lung aerosol administration and oral gavage, the bleomycin model of pulmonary fibrosis was performed. Doses for this study were selected based upon pharmacokinetic parameters obtained in Table 22 (from Example 8). Briefly, Wistar rats (175-225 grams) were administered bleomycin by the intratracheal route using a Penn Century MicroSprayer® catheter. On the seventh day following bleomycin exposure, animals initiated treatment with either saline or pirfenidone. Animals were dosed once a day on days 7 through 28, and euthanized on day 29. Pirfenidone was administered either intratracheally using Penn Century MicroSprayer catheter or by oral gavage. Sham and bleomycin control groups received either no treatment or intratracheal saline by Penn Century MicroSprayer catheter. While dosing more frequently (or less frequently) may improve the observed effects, anesthesia required for intratracheal administration reduced animal weight gain (reduced food intake) and, thus limited dosing to once a day for this study. Because anesthesia reduced weight gain, all study animals (intratracheal, oral and control) received once-a-day isoflurane using the same technique and duration. Twelve animals were enrolled into each dosing group. […] Oral gavage was administered in a single 300 mcL volume. Due to technical restrictions, instead of the mg/kg dose being equally split between six 50 mcL administrations over 2 minutes, intratracheal administration was performed with three equal 50 mcL volumes administered every 40 seconds over the same period. For dose selection, data from Table 22 was extrapolated. On day 29, animals were euthanized. Right lungs were extracted and measured for hydroxyproline content, while left lungs were subjected to histology. Histological sections were stained with picrosirius red and scored for lung tissue fibrosis. Twenty random photographs of each stained lung tissue section were taken, blinded and scored by an independent review panel. Observations were pooled for analysis.

[5] = Pharmacokinetics and lung-tissue distribution after oral gavage or intratracheal aerosol; type: in vivo, Sprague-Dawley rats; settings: for half-life / Cmax / AUC(0-t): Sprague-Dawley, rat, inhaled or intranasal; for AUC(0-t): read-out: Plasma AUC0-6 hrs; for Lung Cmax: immediate post-dose calculated from direct-lung delivered dose
[6] = 0.5 mg/kg intratracheal, single dose with LPS, BAL after 24 hours
[7] = 30 mg/kg oral gavage 2 hours before LPS (60-fold larger dose)
[8] = LPS + PO pirfenidone 30.0 mg/kg
[9] = Bleomycin + IT pirfenidone 0.9 mg/kg
[10] = Bleomycin + IT pirfenidone 3.0 mg/kg
[11] = Bleomycin + IT pirfenidone 6.4 mg/kg
[12] = Bleomycin + PO pirfenidone 30 mg/kg
[13] = Bleomycin + PO pirfenidone 100 mg/kg

T1 sequence (P11712 whole entry): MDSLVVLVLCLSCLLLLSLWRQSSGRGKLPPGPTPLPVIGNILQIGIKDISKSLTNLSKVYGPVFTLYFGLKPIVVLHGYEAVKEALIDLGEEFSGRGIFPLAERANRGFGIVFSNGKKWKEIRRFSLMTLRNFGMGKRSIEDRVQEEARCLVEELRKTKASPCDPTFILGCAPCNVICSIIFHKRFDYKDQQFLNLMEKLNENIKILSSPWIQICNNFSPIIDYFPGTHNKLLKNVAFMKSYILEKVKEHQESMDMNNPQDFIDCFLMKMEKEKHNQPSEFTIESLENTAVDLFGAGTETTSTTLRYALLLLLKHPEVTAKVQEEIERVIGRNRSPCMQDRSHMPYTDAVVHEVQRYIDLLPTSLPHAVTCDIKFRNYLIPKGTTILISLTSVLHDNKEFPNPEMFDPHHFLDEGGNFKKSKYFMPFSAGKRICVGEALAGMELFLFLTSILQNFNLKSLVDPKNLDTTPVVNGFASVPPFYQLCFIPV

For `Cc1ccc(=O)n(-c2ccccc2)c1` [pirfenidone, 5-methyl-1-phenyl-2-(1H)-pyridone], the “contribution to pirfenidone metabolism” value [1] is given as “less than 13%”, the “lung tissue Cmax (estimated)” value ([2]; 0.5 mg/kg IT) is given as roughly 83 mcg/gram and the “LPS-induced inflammatory cell infiltration (BAL)” value [2, 6] is given as “negated”. The “reduction of LPS-induced BAL IL-1β levels” value [2, 6] was 62%, the “effect on LPS-induced BAL IL-1β levels” value [2, 7] was “no effect” and the “effect on LPS-induced inflammatory cell infiltration (BAL)” value [2, 7] was “no effect”. The “BAL IL-1β, average” value ([2]; LPS + IT pirfenidone 0.5 mg/kg) was 36.2 pg/mL, the “BAL cells (%), EO (eosinophil), average” value ([2]; LPS + IT pirfenidone 0.5 mg/kg) was 0.7% and the “BAL cells (%), LM (lymphocytes), average” value ([2]; LPS + IT pirfenidone 0.5 mg/kg) was 1.0%. The “BAL cells (%), NP (neutrophils), average” value ([2]; LPS + IT pirfenidone 0.5 mg/kg) was 13.0%, the “BAL number cells, EO (eosinophil), average” value ([2]; LPS + IT pirfenidone 0.5 mg/kg) was 0.0 1 × 10e5 and the “BAL number cells, LM (lymphocytes), average” value ([2]; LPS + IT pirfenidone 0.5 mg/kg) was 0.1 1 × 10e5. The “BAL number cells, NP (neutrophils), average” value ([2]; LPS + IT pirfenidone 0.5 mg/kg) was 0.7 1 × 10e5, the “LPS-induced IL-1β (%)” value ([2]; LPS + IT pirfenidone 0.5 mg/kg) was 38% and the “BAL IL-1β, average” value [2, 8] was 105.9 pg/mL. For the same molecule, the “BAL cells (%), EO (eosinophil), average” value [2, 8] was 0.6%, the “BAL cells (%), LM (lymphocytes), average” value [2, 8] was 0.9% and the “BAL cells (%), NP (neutrophils), average” value [2, 8] was 36.4%. The “BAL number cells, EO (eosinophil), average” value [2, 8] was 0.3 1 × 10e5, the “BAL number cells, LM (lymphocytes), average” value [2, 8] was 0.3 1 × 10e5 and the “BAL number cells, NP (neutrophils), average” value [2, 8] was 13.2 1 × 10e5. The “LPS-induced IL-1β (%)” value [2, 8] was 113%, the half-life ([3]; Sprague-Dawley, rat, lung, read-out: Lung T1/2 α (only α observed)) was 45 min and the half-life ([3]; Sprague-Dawley, rat, plasma, read-out: Plasma T1/2) was 30 min. The Cmax ([3]; Sprague-Dawley, rat, plasma, oral 70 mg/kg) was 8100 ng/mL, the AUC(0-t) ([3]; Sprague-Dawley, rat, plasma, oral 70 mg/kg, read-out: Plasma AUC0-6 hrs) was 13500 ng·h/mL and the “Lung Cmax” value ([3]; oral 70 mg/kg) was 3.6 µg/g. For the same molecule, the “Lung TOE, time of exposure over 1 μg/g lung tissue” value (shortened to “Lung TOE … over 1 μg/g lung tissue”) ([3]; oral 70 mg/kg) was 89 min, the “possible lung tissue Cmax” value ([4]; 0.9 mg/kg dose to 250 gram rat, lung about 1.5 grams, whole dose) was no more than 150 mcg/gram and the “possible lung tissue Cmax” value ([4]; 0.9 mg/kg intratracheal dose divided into thirds) was “about 50 mcg/gram lung tissue”. For the same molecule, the anti-fibrotic efficacy ([4]; 3.0 mg/kg intratracheal, direct lung aerosol, once a day days 7-28) was “no observed pirfenidone efficacy”, the “Average Fibrosis Score, Picrosirius Red-stained left lung sections” value [4, 9] was 2.88* and the “Lung Tissue AUC0-2 hrs” value [4, 9] was 2.6 µg·h/g. For the same molecule, the “Lung Tissue Cmax” value [4, 9] was 11.6 µg/g, the “Right lung Average Hydroxyproline” value ([4]; Bleomycin + IT pirfenidone 0.9 mg/kg once a day) was 2.88* mg/right lung and the “Average Fibrosis Score, difference from bleomycin control” value (“Average Fibrosis Score, difference” below) [4, 9] was −0.53*, ****. The “Right lung Average Hydroxyproline, difference from bleomycin control” value [4, 9] was −0.70*, **** mg/right lung, the “Average Fibrosis Score, Picrosirius Red-stained left lung sections” value [4, 10] was 3.66 and the “Lung Tissue AUC0-2 hrs” value [4, 10] was 7.3 µg·h/g. The “Lung Tissue Cmax” value [4, 10] was 33.5 µg/g, the “Right lung Average Hydroxyproline” value ([4]; Bleomycin + IT pirfenidone 3.0 mg/kg once a day) was 3.56 mg/right lung and the “Average Fibrosis Score, difference” value [4, 10] was 0.26***, ****. For the same molecule, the “Right lung Average Hydroxyproline, difference from bleomycin control” value [4, 10] was −0.02**, **** mg/right lung, the “Average Fibrosis Score, Picrosirius Red-stained left lung sections” value [4, 11] was 3.47 and the “Lung Tissue AUC0-2 hrs” value [4, 11] was 15.5 µg·h/g. The “Lung Tissue Cmax” value [4, 11] was 71.5 µg/g, the “Right lung Average Hydroxyproline” value ([4]; Bleomycin + IT pirfenidone 6.4 mg/kg once a day) was 3.50 mg/right lung and the “Average Fibrosis Score, difference” value [4, 11] was 0.07**, ****. For the same molecule, the “Right lung Average Hydroxyproline, difference from bleomycin control” value [4, 11] was −0.08***, **** mg/right lung, the “Average Fibrosis Score, Picrosirius Red-stained left lung sections” value [4, 12] was 3.11 and the “Lung Tissue AUC0-2 hrs” value [4, 12] was 18.2 µg·h/g. The “Lung Tissue Cmax” value [4, 12] was 11.8 µg/g, the “Right lung Average Hydroxyproline” value ([4]; Bleomycin + PO pirfenidone 30 mg/kg once a day) was 3.65 mg/right lung and the “Average Fibrosis Score, difference” value [4, 12] was 0.68*, **. For the same molecule, the “Right lung Average Hydroxyproline, difference from bleomycin control” value [4, 12] was 0.43*, ** mg/right lung, the “Average Fibrosis Score, Picrosirius Red-stained left lung sections” value [4, 13] was 3.61 and the “Lung Tissue AUC0-2 hrs” value [4, 13] was 34.4 µg·h/g. The “Lung Tissue Cmax” value [4, 13] was 33.6 µg/g, the “Right lung Average Hydroxyproline” value ([4]; Bleomycin + PO pirfenidone 100 mg/kg once a day) was 3.73 mg/right lung and the “Average Fibrosis Score, difference” value [4, 13] was 1.18***. For the same molecule, the “Right lung Average Hydroxyproline, difference from bleomycin control” value [4, 13] was 0.51*** mg/right lung, the “anti-fibrotic efficacy (fibrosis, hydroxyproline), direct lung versus oral” value ([4]; intratracheal aerosol versus oral gavage) was “more efficacious” and the half-life ([5]; lung, 1 mg/kg, aerosol 1 mg/kg, read-out: Lung T1/2 α) was less than 1 min. It also gave a half-life ([5]; lung, 1 mg/kg, aerosol 1 mg/kg, read-out: Lung T1/2 β) of 45 min, a half-life ([5]; lung, 5 mg/kg, aerosol 5 mg/kg, read-out: Lung T1/2 α) of less than 1 min and a half-life ([5]; lung, 5 mg/kg, aerosol 5 mg/kg, read-out: Lung T1/2 β) of 45 min. For the same molecule, the half-life ([5]; plasma, 1 mg/kg, aerosol 1 mg/kg, read-out: Plasma T1/2) was 30 min, the half-life ([5]; plasma, 5 mg/kg, aerosol 5 mg/kg, read-out: Plasma T1/2) was 30 min and the Cmax ([5]; plasma, aerosol 1 mg/kg) was 1100 ng/mL. For the same molecule, the AUC(0-t) ([5]; plasma, aerosol 1 mg/kg) was 900 ng·h/mL, the Cmax ([5]; plasma, aerosol 5 mg/kg) was 7000 ng/mL and the AUC(0-t) ([5]; plasma, aerosol 5 mg/kg) was 4500 ng·h/mL. The “Lung AUC (for time >1 μg/g)” value ([5]; aerosol 1 mg/kg) was 5.2 mg·h/kg, the “Lung TOE … over 1 μg/g lung tissue” value ([5]; aerosol 1 mg/kg) was 5 min and the “Lung AUC (for time >1 μg/g)” value ([5]; aerosol 5 mg/kg) was 25.4 mg·h/kg. For the same molecule, the “Lung TOE … over 1 μg/g lung tissue” value ([5]; aerosol 5 mg/kg) was 84 min, the “Lung Cmax” value ([5]; aerosol (bolus intratracheal) 1 mg/kg) was 101 µg/g and the “Lung Cmax” value ([5]; aerosol (bolus intratracheal) 5 mg/kg) was 508 µg/g. For the same molecule, the “Lung AUC (for time >1 μg/g)” value ([5]; oral 70 mg/kg) was 4.3 mg·h/kg.
